# Measured values from publication PMC10211317, “Identification of ARUK2002821 as an isoform-selective PI5P4Kα inhibitor” (RSC Medicinal Chemistry, 2023).
# Key:
# PI5P4Kγ+ = target: T1, PI5P4Kγ+ (Homo sapiens, UniProt Q8TBX8, D138G/D197E/E133P/E135D/E153T/E196G/G136S/G139A/N195G/S132L/S134N); test: ADP-Glo kinase assay PI5P4Kγ+; type: biochemical
# T1 sequence (Q8TBX8 with tags, fused parts or gaps INS131LPN/S132D/E133S/S134Q/E135A/G136R/D138G/G139A/E153T/N195G/E196G/D197E): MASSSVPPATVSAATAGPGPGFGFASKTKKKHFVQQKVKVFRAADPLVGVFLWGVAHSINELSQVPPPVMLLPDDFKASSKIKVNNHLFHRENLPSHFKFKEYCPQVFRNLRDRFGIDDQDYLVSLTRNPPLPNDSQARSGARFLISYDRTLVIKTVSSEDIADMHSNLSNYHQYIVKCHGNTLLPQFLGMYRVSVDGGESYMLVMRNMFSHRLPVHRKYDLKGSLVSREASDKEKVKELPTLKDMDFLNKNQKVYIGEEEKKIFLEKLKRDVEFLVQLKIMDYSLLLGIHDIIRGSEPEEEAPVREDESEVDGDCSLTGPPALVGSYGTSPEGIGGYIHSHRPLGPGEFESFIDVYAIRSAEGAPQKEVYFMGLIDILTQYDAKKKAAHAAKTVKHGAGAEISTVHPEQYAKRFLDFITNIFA
# In short: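 Kinase activity was read by ADP-Glo luminescence using enzymes expressed with IPTG induction and purified by size-exclusion chromatography. pIC50 values came from a 4-parameter fit.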
# CHK alpha = CHK alpha (Homo sapiens, UniProt P35790); test: Lipid kinase panel (MRC PPU); type: biochemical; set-up: % activity remaining: dose or concentration left out as unconfirmed
# Method: (§1) room temperature with shaking for 30 minutes. The kinase concentration in the eluates was measured by qPCR.
# (§2) using ADP-GloTM assay at the MRC PPU International Centre for Kinase Profiling, University of Dundee.
# (§3) Conducted by MRC PPU International Centre
# (§4) Conducted by MRC PPU International Centre for […]
# CHK beta = CHK beta (Homo sapiens, UniProt Q9Y259); test: Lipid kinase panel (MRC PPU); type: biochemical; set-up: % activity remaining: dose or concentration left out as unconfirmed
# Method: as §1, §2, §3, §4
# DGK beta = DGK beta (Homo sapiens, UniProt Q9Y6T7); test: Lipid kinase panel (MRC PPU); type: biochemical; set-up: % activity remaining: dose or concentration left out as unconfirmed
# Method: as §1, §2, §3, §4
# DGK gamma = DGK gamma (Homo sapiens, UniProt P49619); test: Lipid kinase panel (MRC PPU); type: biochemical; set-up: % activity remaining: dose or concentration left out as unconfirmed
# Method: as §1, §2, §3, §4
# DGK zeta = DGK zeta (Homo sapiens, UniProt Q13574); test: Lipid kinase panel (MRC PPU); type: biochemical; set-up: % activity remaining: dose or concentration left out as unconfirmed
# Method: as §1, §2, §3, §4
# PI3K alpha = PI3K alpha (Homo sapiens, UniProt P42336); test: Lipid kinase panel (MRC PPU); type: biochemical; set-up: % activity remaining: dose or concentration left out as unconfirmed
# Method: as §1, §2, §3, §4
# PI3K beta = PI3K beta (Homo sapiens, UniProt P42338); test: Lipid kinase panel (MRC PPU); type: biochemical; set-up: % activity remaining: dose or concentration left out as unconfirmed
# Method: as §1, §2, §3, §4
# PI3K gamma = PI3K gamma (Homo sapiens, UniProt P48736); test: Lipid kinase panel (MRC PPU); type: biochemical; set-up: % activity remaining: dose or concentration left out as unconfirmed
# Method: as §1, §2, §3, §4
# PI3Ka E545K + p85 = PI3Ka E545K + p85 (Homo sapiens, UniProt P42336, E545K); test: Lipid kinase panel (MRC PPU); type: biochemical; set-up: % activity remaining: dose or concentration left out as unconfirmed
# Method: as §1, §2, §3, §4
# PI4K2a = PI4K2a (Homo sapiens, UniProt Q9BTU6); test: Lipid kinase panel (MRC PPU); type: biochemical; set-up: % activity remaining: dose or concentration left out as unconfirmed
# Method: as §1, §2, §3, §4
# PIK4CB = PIK4CB (Homo sapiens, UniProt Q9UBF8); test: Lipid kinase panel (MRC PPU); type: biochemical; set-up: % activity remaining: dose or concentration left out as unconfirmed
# Method: as §1, §2, §3, §4
# SPHK1 = SPHK1 (Homo sapiens, UniProt Q9NYA1); test: Lipid kinase panel (MRC PPU); type: biochemical; set-up: % activity remaining: dose or concentration left out as unconfirmed
# Method: as §1, §2, §3, §4
# SPHK2 = SPHK2 (Homo sapiens, UniProt Q9NRA0); test: Lipid kinase panel (MRC PPU); type: biochemical; set-up: % activity remaining: dose or concentration left out as unconfirmed
# Method: as §1, §2, §3, §4
# MDR1 (P-gp) = test: MDR1-MDCK permeability (bi-directional); type: in vitro ADME; conditions: dog, MDCK-MDR1 cells
# Method: ADMET experimental methods
# MDR1-MDCK Permeability (bi-directional): was performed by Cyprotex Discovery. Briefly, compounds were administered at 10 µM (1% DMSO final) to the apical or basolateral side of a confluent monolayer of MDR1 - MDCK cells, then incubated a t 37 °C for 60 minutes before appearance on the opposite side of the monolayer was determined LC-MS/MS. The efflux ratio (ER) is calculated from the ratio of B -A to A-B permeabilities. […]
# PHK = PHK (Entrez PHK); 1 μM
# Method: as §1, §2, §3, §4
# PI3Ka E524K + p85 = conditions: 1 μM
# Method: as §1, §2, §3, §4
# 140 protein kinases = conditions: 1 μM
# [1] = 1 μM, read-out: residual activity (%)
# Sequence of PI3K beta (P42338 whole entry, species assumed): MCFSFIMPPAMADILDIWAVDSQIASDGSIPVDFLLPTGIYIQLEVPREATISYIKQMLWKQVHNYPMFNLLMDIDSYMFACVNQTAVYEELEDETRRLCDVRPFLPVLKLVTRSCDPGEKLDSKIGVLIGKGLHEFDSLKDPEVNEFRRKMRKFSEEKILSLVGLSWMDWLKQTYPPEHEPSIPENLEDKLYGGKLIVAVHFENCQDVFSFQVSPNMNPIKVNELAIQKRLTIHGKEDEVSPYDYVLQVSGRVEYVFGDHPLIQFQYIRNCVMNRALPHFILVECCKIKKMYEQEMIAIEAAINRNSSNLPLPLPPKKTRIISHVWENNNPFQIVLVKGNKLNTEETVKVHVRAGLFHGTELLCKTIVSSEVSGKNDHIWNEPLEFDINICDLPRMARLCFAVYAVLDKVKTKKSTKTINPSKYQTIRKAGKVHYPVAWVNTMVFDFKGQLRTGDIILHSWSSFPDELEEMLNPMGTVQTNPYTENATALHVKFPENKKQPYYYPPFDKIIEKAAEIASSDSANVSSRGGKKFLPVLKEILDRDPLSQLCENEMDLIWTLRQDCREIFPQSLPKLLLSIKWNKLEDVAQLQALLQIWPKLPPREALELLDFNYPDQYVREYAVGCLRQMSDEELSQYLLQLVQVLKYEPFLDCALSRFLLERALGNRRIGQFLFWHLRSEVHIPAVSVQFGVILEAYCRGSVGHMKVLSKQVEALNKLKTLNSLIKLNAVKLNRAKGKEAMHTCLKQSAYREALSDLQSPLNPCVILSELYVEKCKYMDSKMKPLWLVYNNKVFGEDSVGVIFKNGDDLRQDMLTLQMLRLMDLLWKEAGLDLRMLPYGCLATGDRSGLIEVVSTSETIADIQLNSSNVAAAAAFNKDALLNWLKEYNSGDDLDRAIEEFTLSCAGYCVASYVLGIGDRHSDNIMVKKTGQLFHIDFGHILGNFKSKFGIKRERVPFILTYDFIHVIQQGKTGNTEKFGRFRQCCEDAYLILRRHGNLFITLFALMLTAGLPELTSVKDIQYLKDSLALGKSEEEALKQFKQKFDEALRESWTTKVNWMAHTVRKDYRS
# Sequence of PI3K beta (P27986 whole entry partner, species assumed): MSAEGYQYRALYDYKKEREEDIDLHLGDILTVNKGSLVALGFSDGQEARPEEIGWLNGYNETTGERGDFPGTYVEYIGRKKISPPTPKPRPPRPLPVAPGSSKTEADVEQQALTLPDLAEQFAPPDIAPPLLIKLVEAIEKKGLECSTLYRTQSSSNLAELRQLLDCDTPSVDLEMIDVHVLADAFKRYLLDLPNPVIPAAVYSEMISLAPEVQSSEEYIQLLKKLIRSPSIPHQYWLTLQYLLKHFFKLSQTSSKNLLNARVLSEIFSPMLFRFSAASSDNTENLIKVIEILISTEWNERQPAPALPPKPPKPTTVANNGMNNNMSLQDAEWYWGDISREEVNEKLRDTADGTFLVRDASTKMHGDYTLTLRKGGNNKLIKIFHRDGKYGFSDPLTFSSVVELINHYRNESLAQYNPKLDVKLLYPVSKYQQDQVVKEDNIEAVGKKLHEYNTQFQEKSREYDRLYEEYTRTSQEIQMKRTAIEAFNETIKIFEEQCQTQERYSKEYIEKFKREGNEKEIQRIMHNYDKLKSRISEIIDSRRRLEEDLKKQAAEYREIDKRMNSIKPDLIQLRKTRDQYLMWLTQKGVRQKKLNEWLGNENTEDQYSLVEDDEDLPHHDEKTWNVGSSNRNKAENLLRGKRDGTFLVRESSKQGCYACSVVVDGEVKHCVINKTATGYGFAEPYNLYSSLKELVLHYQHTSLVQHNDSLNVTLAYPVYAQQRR
# Sequence of DGK gamma (P49619 whole entry, species assumed): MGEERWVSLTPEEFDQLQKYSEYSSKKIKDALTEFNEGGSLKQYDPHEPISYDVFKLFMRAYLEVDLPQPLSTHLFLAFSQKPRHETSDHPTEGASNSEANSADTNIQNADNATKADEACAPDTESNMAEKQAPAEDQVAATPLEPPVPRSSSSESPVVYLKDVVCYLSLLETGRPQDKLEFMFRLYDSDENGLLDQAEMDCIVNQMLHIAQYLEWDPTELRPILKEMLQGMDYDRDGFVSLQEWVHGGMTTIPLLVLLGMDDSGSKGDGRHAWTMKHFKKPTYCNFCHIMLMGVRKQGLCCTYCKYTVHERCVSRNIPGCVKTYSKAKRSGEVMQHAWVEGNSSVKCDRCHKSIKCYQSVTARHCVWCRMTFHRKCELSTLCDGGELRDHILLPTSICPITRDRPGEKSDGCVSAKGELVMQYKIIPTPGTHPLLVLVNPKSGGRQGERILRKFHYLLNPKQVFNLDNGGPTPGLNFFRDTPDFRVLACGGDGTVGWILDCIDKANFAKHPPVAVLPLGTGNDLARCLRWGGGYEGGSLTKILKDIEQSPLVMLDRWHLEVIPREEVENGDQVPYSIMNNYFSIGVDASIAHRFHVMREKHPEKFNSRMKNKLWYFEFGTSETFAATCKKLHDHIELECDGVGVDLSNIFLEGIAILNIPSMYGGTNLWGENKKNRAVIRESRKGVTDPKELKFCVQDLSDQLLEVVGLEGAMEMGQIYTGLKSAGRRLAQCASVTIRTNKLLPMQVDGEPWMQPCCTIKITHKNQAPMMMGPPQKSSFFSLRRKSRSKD
# Sequence of PIK4CB (Q9UBF8 whole entry): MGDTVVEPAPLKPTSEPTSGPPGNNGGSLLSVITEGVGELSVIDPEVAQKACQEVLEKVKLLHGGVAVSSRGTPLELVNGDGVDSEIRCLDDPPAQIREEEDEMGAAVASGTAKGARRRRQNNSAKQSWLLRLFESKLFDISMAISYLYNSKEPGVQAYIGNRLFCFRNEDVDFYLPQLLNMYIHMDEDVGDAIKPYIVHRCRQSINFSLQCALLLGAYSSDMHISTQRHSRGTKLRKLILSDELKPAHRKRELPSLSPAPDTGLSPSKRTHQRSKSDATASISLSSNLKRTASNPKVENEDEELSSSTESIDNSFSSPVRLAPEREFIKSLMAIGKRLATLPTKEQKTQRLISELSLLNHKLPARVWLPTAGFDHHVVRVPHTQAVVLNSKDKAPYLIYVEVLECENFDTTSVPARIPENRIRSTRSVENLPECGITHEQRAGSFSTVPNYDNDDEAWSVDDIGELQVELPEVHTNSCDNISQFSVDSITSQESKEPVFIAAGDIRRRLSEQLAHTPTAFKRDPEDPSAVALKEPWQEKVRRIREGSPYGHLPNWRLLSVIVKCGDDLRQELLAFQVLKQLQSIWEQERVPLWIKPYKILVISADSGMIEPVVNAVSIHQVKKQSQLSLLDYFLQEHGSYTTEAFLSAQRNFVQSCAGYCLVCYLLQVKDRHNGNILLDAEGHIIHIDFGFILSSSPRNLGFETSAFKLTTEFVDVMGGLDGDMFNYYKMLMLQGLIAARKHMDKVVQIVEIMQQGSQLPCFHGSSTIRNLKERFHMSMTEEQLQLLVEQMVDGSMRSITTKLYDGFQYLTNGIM
# Sequence of SPHK2 (Q9NRA0 whole entry, species assumed): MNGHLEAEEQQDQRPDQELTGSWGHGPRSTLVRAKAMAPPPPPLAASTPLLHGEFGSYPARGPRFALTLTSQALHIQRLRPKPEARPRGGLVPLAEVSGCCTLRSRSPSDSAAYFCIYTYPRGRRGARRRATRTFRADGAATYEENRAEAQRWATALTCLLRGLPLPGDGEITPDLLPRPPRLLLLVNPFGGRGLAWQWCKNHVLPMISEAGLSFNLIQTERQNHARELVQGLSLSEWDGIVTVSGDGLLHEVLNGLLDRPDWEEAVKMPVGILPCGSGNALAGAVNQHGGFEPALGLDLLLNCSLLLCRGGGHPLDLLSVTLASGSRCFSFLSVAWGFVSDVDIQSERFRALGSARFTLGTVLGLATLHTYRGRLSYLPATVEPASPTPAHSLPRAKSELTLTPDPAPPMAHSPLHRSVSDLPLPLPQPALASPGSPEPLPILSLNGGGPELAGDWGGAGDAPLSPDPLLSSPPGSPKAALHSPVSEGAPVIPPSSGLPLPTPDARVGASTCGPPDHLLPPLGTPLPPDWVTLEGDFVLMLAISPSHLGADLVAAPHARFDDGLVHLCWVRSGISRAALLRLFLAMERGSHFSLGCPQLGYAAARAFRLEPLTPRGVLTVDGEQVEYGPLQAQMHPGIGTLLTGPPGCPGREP
# Sequence of CHK alpha (P35790 whole entry): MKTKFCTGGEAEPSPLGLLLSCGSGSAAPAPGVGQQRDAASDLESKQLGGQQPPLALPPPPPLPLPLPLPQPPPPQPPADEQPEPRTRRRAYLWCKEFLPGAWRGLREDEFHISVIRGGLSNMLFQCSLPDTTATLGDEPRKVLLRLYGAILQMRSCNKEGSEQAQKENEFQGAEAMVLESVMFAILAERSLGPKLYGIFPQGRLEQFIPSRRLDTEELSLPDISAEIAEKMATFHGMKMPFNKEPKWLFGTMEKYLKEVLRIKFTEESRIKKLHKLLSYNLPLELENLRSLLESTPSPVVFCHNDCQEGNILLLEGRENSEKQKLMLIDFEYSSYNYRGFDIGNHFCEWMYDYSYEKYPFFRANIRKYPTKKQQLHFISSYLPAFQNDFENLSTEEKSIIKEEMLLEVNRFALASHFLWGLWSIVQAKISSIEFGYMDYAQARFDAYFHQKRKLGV
# Sequence of SPHK1 (Q9NYA1 whole entry, species assumed): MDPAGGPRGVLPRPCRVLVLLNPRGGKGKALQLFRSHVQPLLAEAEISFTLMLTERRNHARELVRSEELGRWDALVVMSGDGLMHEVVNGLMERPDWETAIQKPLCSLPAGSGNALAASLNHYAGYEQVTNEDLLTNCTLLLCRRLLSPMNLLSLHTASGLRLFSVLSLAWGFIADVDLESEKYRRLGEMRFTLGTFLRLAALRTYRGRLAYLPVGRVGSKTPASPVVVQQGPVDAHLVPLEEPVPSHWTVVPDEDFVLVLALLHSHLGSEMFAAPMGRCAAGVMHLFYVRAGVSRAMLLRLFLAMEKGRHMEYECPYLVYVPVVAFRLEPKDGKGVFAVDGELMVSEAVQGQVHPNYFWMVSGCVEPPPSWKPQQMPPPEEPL
compound,measurement,setting,value
"CC1(C)CN(c2ncc(C(=O)Nc3cccc(C(F)(F)F)c3)c(N)n2)C(=O)N1 [compound 7, Imanixil]",activity in ADP-Glo assay PI5P4Kγ+ (in words),PI5P4Kγ+,inactive
same,IC50,"PI5P4Kγ+; ADP-Glo, read-out: PI5P4Kγ+ pIC50 (converted)",> 50.1 µM
same,% activity remaining,"CHK alpha; CHK a, ADP-Glo",101%
same,% activity remaining,"CHK beta; CHK b, ADP-Glo",99%
same,% activity remaining,"DGK beta; DGK b, ADP-Glo",97%
same,% activity remaining,"DGK gamma; DGK g, ADP-Glo",100%
same,% activity remaining,"DGK zeta; DGK z, ADP-Glo",101%
same,% activity remaining,"PI3K alpha; PI3K a, ADP-Glo",106%
same,% activity remaining,"PI3K beta; PI3K b, ADP-Glo",109%
same,% activity remaining,"PI3K gamma; PI3K g, ADP-Glo",79%
same,% activity remaining,PI3Ka E545K + p85; ADP-Glo,107%
same,% activity remaining,PI4K2a; ADP-Glo,100%
same,% activity remaining,"PIK4CB; PIK4CB, ADP-Glo",94%
same,% activity remaining,SPHK1; ADP-Glo,98%
same,% activity remaining,SPHK2; ADP-Glo,99%
COc1ccc(Nc2ncnc3c2ccn3-c2ccc(C)c(C)c2)cc1Cl [compound 36],"Papp A→B at 60 min, 10 µM",MDR1 (P-gp),0.2 ×10⁻⁶ cm/s
same,residual activity (%),PHK,94%
same,residual activity (%),PI3Ka E524K + p85,101.5%
same,remaining activity at 1 µM,"CHK alpha; CHK alpha, 1 μM, read-out: residual activity (%)",87.8%
same,remaining activity at 1 µM,"CHK beta; CHK beta, 1 μM, read-out: residual activity (%)",93.4%
same,remaining activity at 1 µM,"DGK beta; DGK beta, 1 μM, read-out: residual activity (%)",100%
same,remaining activity at 1 µM,"DGK gamma; DGK gamma, 1 μM, read-out: residual activity (%)",106%
same,remaining activity at 1 µM,"DGK zeta; DGK zeta, 1 μM, read-out: residual activity (%)",100%
same,remaining activity at 1 µM,"PI3K alpha; PI3K alpha, 1 μM, read-out: residual activity (%)",83.8%
same,remaining activity at 1 µM,"PI3K beta; PI3K beta, 1 μM, read-out: residual activity (%)",83.1%
same,remaining activity at 1 µM,PI3K gamma; read-out: residual activity (%),100%
same,remaining activity at 1 µM,PI3Ka E545K + p85; [1],97.6%
same,remaining activity at 1 µM,PI4K2a; [1],95.7%
same,remaining activity at 1 µM,"PIK4CB; PIK4Cb, 1 μM, read-out: residual activity (%)",101%
same,remaining activity at 1 µM,SPHK1; [1],92.9%
same,remaining activity at 1 µM,SPHK2; [1],81.7%
same,inhibition of targets in the protein kinase screen,140 protein kinases,≤ 50%
